Data published in patent publication US7199286B2, “Plant-derived novel pathogen and SAR-induction chemical induced promoters, and fragments thereof” (Syngenta Participations AG, priority 1999, dated 2007).

Columns and labels:
NI16 RNA = experiment: Induction of NI16 mRNA by SA and BTH spray, RNA blot hybridization; assay type: in vivo, Arabidopsis; details: WS-O plants sprayed with 5 mM SA or 300 μm BTH
Experimental: RNA is prepared from 4 week old Wassilewskija (WS—O) plants, that are either sprayed with water, a 5 mM solution of sodium salicylate (SA), or a 300 μm solution of benzo-(1,2,3)-thiadiazole-7-carbothioic acid S-methyl ester (BTH). […] RNA extractions and RNA blot hybridizations are performed as described previously by Ausubel et al. (1987). NI16 RNA is induced 5–10 fold within 15 minutes of SA or BTH induction and reaches a peak of approximately 50 fold induction within 2 hours of SA treatment and 25 fold induction with BTH treatment.

[1] = system: NI16 promoter fragment 544 bp; experiment: GUS florescence assay of promoter::GUS plants after SA application, NI16 544 bp fragment; assay type: in vivo, Arabidopsis; details: 5 mM SA spray
Excerpt: A binary promoter::reporter plasmid (pNOV2374) for Arabidopsis transformation was constructed. The regulatory/promoter sequence was fused to the GUS reporter gene (Jefferson et al. (1987) EMBO J 6: 3901-3907) by recombination using […] Technology according to the manufacturer's protocol as described in the Instruction Manual (LifeTechnologies, Rockville, Md.). The construct was then transformed into Agrobacterium tumefaciens strains by electroporation. pNOV2374 is a binary vector with a VS1 origin of replication, a copy of the Agrobacterium virg gene in the backbone, and a Basta® resistance selectable marker cassette between the left and right border sequences of the T-DNA. The Basta® selectable marker cassette comprises the Agrobacterium tumefaciens manopine synthase promoter (AtMas) (Barker et al., Plant Mol. Biol. 2, 335-350 (1983)) operably linked to the gene encoding Basta® resistance (i.e., the “BAR” gene, phosphinothricin acetyl transferase) (White et al., Nucl Acids Res 18: 1062 (1990)) and the 35S terminator. The AtMas promoter, the BAR coding sequence, and the 35S terminator are located at nt 4211 to nt 4679, nt 4680 to nt 5228, and nt 5263 to nt 5488, respectively, of pNOV2374. The vector contains […] recombination components, which were introduced into the binary vector backbone by ligating a blunt-ended cassette containing attR sites, ccdB, and a cholramphenicol resistance marker using the […] Vector Conversion System (LifeTechnologies, Rockville, Md.). The […] cassette was located between nt 126 and 1818 of pNOV2374. The promoter cassettes were inserted through an LR recombination reaction whereby the DNA sequence of pNOV2374 between nt 126 and nt 1818 were removed and replaced with the promoter of interest flanked by att sequences. […] The GIG gene (SEQ ID NO:29) contains the ST-LS1 intron from Solanum tuberosum at nt 385 to nt 576 of GUS (obtained from Dr. Stanton […], Purdue University, and described in Narasimhulu, et al. (1996) Plant Cell 8: 873-886.). […] The treatment was applied as a fine mist to the leaves. Leaf tissue was harvested from plants for the β-glucuronidase (GUS) florescence assay prior to SA application (T0) and at various time intervals after application. For quantitative analysis of promoter activity following induction treatments or in various Arabidopsis tissues and organs, GUS expression is measured florometrically. Tissue samples were harvested and ground in ice cold GUS extraction buffer (50 mM Na2HPO4 pH 7.0, 5 mM DTT, 1 mM Na2EDTA, 0.1% TritonX100, 0.1% sarcosyl). Ground samples were spun in a microfuge at 10,000 rpm for 15 minutes at 4° C. Following centrifugation, the supernatant was removed for the GUS assay and for a protein concentration determination. To measure GUS activity, the plant extract was assayed in GUS assay buffer (50 mM Na2HPO4 pH 7.0, 5 mM DTT, 1 mM Na2EDTA, 0.1% TritonX100, 0.1% sarcosyl, 1 mM 4-Methylumbelliferyl-beta-D-glucuronic acid dihydrate (MUG)), pre-warmed to 37° C. Reactions were incubated, and 100 uL aliquots were removed at 10 minute intervals over 30 minutes to stop the reaction by adding the 100 uL aliquots to tubes containing 900 uL of 2% Na2CO3. The stopped reactions were then read on a Tecan Spectroflourometer at 365 nm excitation and 455 emission wavelengths. Protein concentrations were determined using the BCA assay following the manufacturer's protocol. GUS activity is expressed as pmol MU/mg protein/min.

## O=C(O)c1ccccc1O [SA, salicylic acid]
NI16 RNA
  time NI16 transcript remains highly induced after treatment: up to 24 hours
NI16 RNA; peak, within 2 hours of SA treatment
  NI16 RNA peak induction: approximately 50 fold
[1]; 2 h
  GUS Activity Induced by SA: 52.2 pmol/mg protein/min
  GUS activity Fold-change relative to T0 (uninduced): 4.3 fold
[1]; 4 h
  GUS Activity Induced by SA: 72.5 pmol/mg protein/min
  GUS activity Fold-change relative to T0 (uninduced): 6.0 fold
[1]; 8 h
  GUS Activity Induced by SA: 194.9 pmol/mg protein/min
  GUS activity Fold-change relative to T0 (uninduced): 16.2 fold
[1]; 24 h
  GUS Activity Induced by SA: 205.4 pmol/mg protein/min
  GUS activity Fold-change relative to T0 (uninduced): 17.0 fold
